# Reference: patent US5945507A, “Antimicrobial peptides” (University of Pittsburgh, priority 1997, dated 1999)
# “Also recorded” adds a separate entry of the source. Read-outs that look alike come from different tables or passages of the source. Bridge positions count the residues as written; N and C are the ends. Ends that are not written are not given here. I, II: the chains in the order shown.
# Legend:
# S. aureus [1] = type: cell-based, Staphylococcus aureus; conditions: for MBC50: in µM; for antibacterial activity (in words): S. aureus
# Experimental: Bacterial lysis assay. Bacterial lysis assays were conducted in a manner similar to that described previously (Lehrer, R. I., M. E. Selsted, D. Szklarek, and F. J. 1983. Infect. Immun. 42:10-14, 1983; Miller, M. A., R. F. Garry, J. M. Jaynes, and R. C. Montelaro, AIDS Res Hum Retroviruses 7:511-519, 1991). Bacterial suspensions were cultured in Luria Broth to mid-log growth phase and washed by several cycles of centrifugation and resuspension in 10 mM phosphate buffer. The A600 of the suspension was adjusted with 10 mM phosphate buffer such that, upon dilution, 5-10×10^5 CFU/ml would be treated in the assay. Bacteria were incubated with two-fold dilutions of peptides (32-0.1 μM in 96-well plates in 10 mM phosphate buffer, pH 7.2, for 1 hour. Ten-fold dilutions were performed to a dilution of 1:1000; a 100-μl aliquot from each condition was plated on tryptic soy agar (Difco, Detroit, Mich.) and the plates were incubated overnight. Colonies of surviving bacteria (colony-forming units) were counted and compared to untreated controls to determine the amount of peptide-induced killing under each condition. Log killing is defined as the log of the ratio of CFUs present before and after treatment with peptide. Complete killing is indicated where there were zero colonies per 100-μl aliquot of undiluted bacteria-peptide mixture.
# Calculation of MBC. […] The minimal bactericidal concentration, MBC, is the peptide concentration at which 99.9% (3 logs) killing is achieved (Pearson et al., Antimicrob. Agents Chemother. 18:699-708, 1980). The MBC50 is the peptide concentration at which 50% killing is achieved.
# [2] = tested on: human red blood cells (RBC); type: cell-based; conditions: for % lysis at 100 μM: erythrocytes, 100 μM peptide; for hemolytic activity (in words): red blood cells; for hemolytic activity: red cells of human, 100 μM
# From the text: Erythrocyte Lysis Assay. Peptides were screened for hemolytic activity by treating freshly isolated human red blood cells (RBC) with various concentrations of peptides, centrifuging the samples to pellet intact cells, and measuring the amount of hemoglobin in the supernatant to determine the extent of RBC lysis under each condition. The method used is essentially that described by Srinivas et al. (J. Biol. Chem. 267:7121-7127, 1992) with the following modifications: peptide concentrations of 0.1-100 μM were tested, the incubation period was 1 hour at 37° C., and the A570 was measured in duplicate wells of a 96-well plate. A calibration curve was constructed by treating various amounts of red blood cells (0, 20,40, 60, 80, and 100% of the volume of RBC used in test samples) with plain water, which completely lyses the cells. The standard curve was used to calculate the percent lysis at each peptide concentration.
# S. aureus [3] = experiment: Kinetics of bacterial killing, S. aureus; type: cell-based, Staphylococcus aureus; conditions: 10 μM peptide, FIG. 5
# Experimental: Kinetics of Bacterial Killing. The time course of the cytolytic activity of a peptide was determined by a modification of the above procedure, where a volume of appropriately diluted bacteria was treated with 1-10 μM peptide; aliquots of this mixture were removed every 10 seconds and diluted 1:2 in 2× Luria Broth; each resulting suspension was subsequently plated on agar as described above. The number of colonies visible upon incubation for each time point was used to calculate a rate of killing by the peptide.
# [4] = Table 4, peptide concentration (closest 2-fold dilution) reducing CFU/ml by 50%
# [5] = Table 4, peptide concentration (closest 2-fold dilution) reducing CFU/ml by 99.9%, 1 hour
# [6] = Table 7, substitution analogs, 50% reduction of CFU/ml
# [7] = Table 7, substitution analogs, 99.9% reduction of CFU/ml
# [8] = Table 6, truncated analogs, 50% reduction of CFU/ml
# [9] = Table 6, truncated analogs, 99.9% reduction of CFU/ml
Substance,% lysis at 100 μM ([2]; Table 7),MBC50 (S. aureus [1]; [6]),MBC (S. aureus [1]; [7]),hemolytic activity (in words) [2],antibacterial activity (in words) (S. aureus [1]),other results
DLWETLRRGGRWILAIPRRIRQGLELTL [SLP1],,,,,,MBC50 (S. aureus [1]; [4]): 8; MBC (S. aureus [1]; [5]): > 16 µM
"FLIRQLIELLTWLFSNCRTLLSEVY [SLP2A1, engineered analog of SLP2A]",7%,> 32,> 32 µM,,,
"FLIRQLIRLLTWLFSNCRTLLSRVY [SLP2A, SIVMM239 771-795]",,,,rather hemolytic,highly active,MBC50 (S. aureus [1]; [4]): 4; MBC (S. aureus [1]; [5]): > 32 µM
GACRAIRHIPRRIR [LP14],,,,virtually no hemolytic activity,high level of antibacterial activity,hemolytic activity [2]: less than 10%; MBC50 (S. aureus [1]; [8]): 2.5; MBC (S. aureus [1]; [9]): 10 µM
I: RVIEVVQGACRAIRHIPRRIRQGLERIL / II: RVIEVVQGACRAIRHIPRRIRQGLERIL (disulfide I:10-II:10) [bis-LLP1],,,,,,% lysis at 100 μM ([2]; Table 8): 100%
"LLSEVYQILQPILQELSATLQRIREVLR [SLP2B1, engineered analog of SLP2B]",10%,> 32,> 32 µM,,,
"LLSRVYQILQPILQRLSATLQRIREVLR [SLP2B, SIVMM239 790-817]",,,,,highly active,MBC50 (S. aureus [1]; [4]): .25; MBC (S. aureus [1]; [5]): 1 µM
"RIAGYGLRGLAVIIRICIRGLNLIFEIIR [ELP, EIAV 808-836 (Wyoming)]",,,,high hemolytic activity; also recorded: highly hemolytic,absence of measurable bactericidal activity; also recorded: little antibacterial activity,MBC50 (S. aureus [1]; [4]): > 10; MBC (S. aureus [1]; [5]): > 10 µM
"RVIEVVQGACRAIEHIPRRIEQGLERIL [Analog 3, engineered analog of LLP1]",< 5%,> 80,> 80 µM,devoid of activity,devoid of activity,
"RVIEVVQGACRAIEHIPRRIRQGLERIL [Peptide R841E, engineered analog of LLP1]",30%,10-20,40 to 80 µM,reducing both the antibacterial and hemolytic activity,reducing both the antibacterial and hemolytic activity,
"RVIEVVQGACRAIRHIPRRIEQGLERIL [Peptide R848E, engineered analog of LLP1]",10%,20,80 µM,reducing both the antibacterial and hemolytic activity,reducing both the antibacterial and hemolytic activity,
RVIEVVQGACRAIRHIPRRIR [LP21],,,,virtually no hemolytic activity,high level of antibacterial activity,hemolytic activity [2]: less than 10%; MBC50 (S. aureus [1]; [8]): 2.5; MBC (S. aureus [1]; [9]): 10 µM
"RVIEVVQGACRAIRHIPRRIRGQLERIL [LLP1-Am, LLP1 with chemically modified cysteine]",,,,,,"% lysis at 100 μM ([2]; Table 8): 15%; MBC50 (S. aureus [1]; Table 8, cysteine substitution analogs, 50% reduction of CFU/ml): 5; MBC (S. aureus [1]; Table 8, cysteine substitution analogs, 99.9% reduction of CFU/ml): 20 µM"
RVIEVVQGACRAIRHIPRRIRQGLERIL [LLP1],,,,Below 10 μM very little lysis is observed,,% lysis at 100 μM ([2]; Table 8): 100%; hemolytic LD50 ([2]; text b508): 20 to 40 µM; killing within one minute (S. aureus [3]): over 99.99%
"RVIEVVQGACRAIRHIPRRSRQGLERIL [Peptide I847S, engineered analog of LLP1]",< 10%,5,20 µM,significantly reduced,reduces antibacterial activity,
"RVIEVVQGACRASRHIPRRIRQGLERIL [Peptide I840S, engineered analog of LLP1]",< 10%,2.5,10 to 20 µM,significantly reduced,reduces antibacterial activity,
"RVIRVVQGACRAIRHIPRRIRQGLRRIL [Analog 5, engineered analog of LLP1]",100%,0.3,2.5 µM,very high antibacterial and hemolytic activity,very high antibacterial and hemolytic activity,
VVQGACRAIRHIPRRIR [LP17],,,,virtually no hemolytic activity,high level of antibacterial activity,hemolytic activity [2]: less than 10%; MBC50 (S. aureus [1]; [8]): 5; MBC (S. aureus [1]; [9]): 20 µM
"YHRLRDLLLIVTRIVELLGRR [LLP2, HIVHXB2R 768-788]",,,,,highly active,MBC50 (S. aureus [1]; [4]): 1; MBC (S. aureus [1]; [5]): 4 µM
